Entries after “also recorded” stand apart in the source; their conditions may differ.
Key:
[1] = test system: hedgehog-responsive Gli-Luc reporter-construct; experiment: Gli-Luc hedgehog pathway reporter assay in [10T1/2(s12)] cells; type: cell-based, murine; conditions: Table 1
How it was run: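 10T1/2(s12) cells carrying a Gli-Luc reporter, switched to 0.5% FBS medium, then exposed to compound for 24 hr; luciferase read by luminescence. Screen A: 1-2 μM with Hh protein at 0.01 μg/ml (about EC30); Screen B: 5 μM without Hh. Activity expressed as percent of full Hh-induced signal.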

[2] = test system: patched (ptc-lacZ β-galactosidase reporter); experiment: Ptc-lacZ reporter mice assay (X-gal staining of tissues); type: in vivo
Protocol: Mice with a β-galactosidase transgene (ptc-lacZ mice) under the regulatory control of the patched locus express the β-galactosidase protein in the same cells where the endogenous mouse patched gene is expressed. The β-galactosidase protein can thus be used as a faithful reporter of the expression of the endogenous patched gene.
Ptc-lacZ mice were divided into four treatment groups and were treated with the following compounds or combinations of compounds for four days, beginning on the first day after birth (dipal-Shh=dipalmitoylated Sonic hedgehog):
The vehicle for the agonist was 10% DMSO in PBS (pH 7.2). The agonist was injected from a 4.67 mM stock dissolved in the vehicle solution.
18 hours following the last injections, the mice were sacrificed and the following tissues were collected: skull, kidney, lung, scapula, skin and heart. All tissues were fixed in 0.2% glutaraldehyde, 5 mM EDTA (pH 8.0), 20 mM MgCl2, 100 mM Na2HPO4 for 30 minutes before staining in 1 mg/ml X-gal, 12.5 mM potassium ferrocyanide, 12.5 mM potassium ferricyanide, 2 mM MgCl2, 0.01% deoxycholate, 0.02% NP-40, and 100 mM Na2HPO4 for 30 hours. Tissues were judged for relative intensity and photographed.
FIG. 42: Ptc-lacZ mice were divided into two treatment groups and were treated with the following compounds for three days, beginning on the first day after birth:
The vehicle for the agonist was 10% DMSO in PBS (pH 7.2). The agonist was injected from a 1.0 mM stock dissolved in the vehicle solution.
Eighteen hours following the last injections, the mice were sacrificed and the forelimbs were collected and processed as described above.
In a third experiment, Ptc-lacZ mice were divided into five treatment groups and were treated with the following compounds for four days, beginning on the first day after birth:
The vehicle for the agonist was 10% DMSO in PBS (pH 7.2). The agonist was injected from stocks of 0.3, 0.1 and 0.03 mM dissolved in the vehicle solution.

- EC50 [1]: < 100 nM
Compound: CNC1CCC(N(Cc2ccc(OC)c(-c3ccc(C#N)cc3)c2)C(=O)c2sc3ccccc3c2Cl)CC1 (stereo not drawn) [D]
- upregulation of hedgehog pathway in forelimbs (β-galactosidase staining) ([2]; 0.1 mg/kg/injection 4X/day, four days): very weak upregulation
- upregulation of hedgehog pathway in forelimbs (β-galactosidase staining) ([2]; 0.3 mg/kg/injection 4X/day, four days): greater than that seen with injections of Hh protein at 10 mg/kg/injection
- upregulation of hedgehog pathway in forelimbs (β-galactosidase staining) ([2]; 0.9 mg/kg/injection 4X/day, four days): highest levels of upregulation; also recorded: greater than that seen with injections of Hh protein at 10 mg/kg/injection
- upregulation of hedgehog pathway in forelimbs (β-galactosidase staining) ([2]; 4 mg/kg/injection 4X/day, three days, absence of dipal-Shh): strong upregulation in the nerves, blood vessels, cartilage, and connective tissue; also recorded: greater than that seen with injections of dipal-Shh at 10 mg/kg/injection
- dose dependence of hedgehog pathway upregulation in vivo ([2]; 0.1-0.9 mg/kg/injection 4X/day): dose-responsive manner

— patent US8129425B2, “Small organic molecule regulators of cell proliferation” (Curis, Inc., priority 2000, dated 2012)
